# Entries after “also recorded” stand apart in the source; their conditions may differ.
# What was measured:
# [1] = molecular target: T1, hERG1 (Homo sapiens, UniProt Q12809); test: Whole cell patch-clamp of hERG1 currents in transfected HEK 293 cells; format: cell-based; parameters: Inactivation ΔV0.3: unit not given here; conditions: for Deactivation Δλ/λcon: deactivation time constant relative to baseline; for Activation V1/2 (mV): shift in voltage-dependence of activation; for Inactivation ΔV0.3: shift in voltage-dependence of inactivation; for Amplitude I/Icon: tail current relative to baseline
# T1 construct: expressed in transfected cells; host or cells: HEK 293
# Description: (§1) Transfected HEK cells on glass cover slips were placed in a chamber mounted on a modified stage of an inverted microscope. The chamber was superfused at a rate of 2 mL/min with a normal external solution. The extracellular solution contained (in mM) NaCl 140, KCl 5.4, CaCl2 1, MgCl2 1, HEPES 5, glucose 5.5, pH 7.4, with NaOH. Micropipettes were pulled from borosilicate glass capillary tubes on a programmable horizontal puller (Sutter Instruments, Novato, CA). Standard patch-clamp methods were used to measure the whole cell currents of hERG1 mutants expressed in HEK 293 cells using the AXOPATCH 200B amplifier (Axon Instruments). Unless otherwise indicated, tail currents were recorded when the voltage was returned to −50 mV from +50 mV. Further details on electrophysiological methods are collected in Methods S1.
# (§2) Electrophysiology Protocol:
# (§3) The pipette solution contained the following (at mM concentration): KCl 10, K-aspartate 110, MgCl2 5, Na2ATP 5, EGTA 10, HEPES 5, and CaCl2 1. The solution was adjusted to pH 7.2 with KOH. The extracellular solution contained the following (at mM concentration): NaCl 140, KCl 5.4, CaCl2 1, MgCl2 1, HEPES 5, and glucose 5.5. The solution was adjusted to pH 7.4 with NaOH. For IKr measurements, the whole cell configuration of the patch clamp method was used. The series resistance was less than 7
# (§4) MΩ. The data were sampled at 1 kHz. The holding potential was -80 mV. The activation of hERG tail currents was induced by depolarization to a range of potentials from +50 to -100 mV in 10 mV steps for 1 second. This was followed by repolarization to -100 mV for 1 second to record the tail currents.
# (§5) -100 mV, a -120 mV 1 second pre-pulse was applied to completely close the hERG channels before subsequent depolarization. All of the tail currents reported in this manuscript represent dofetilide-sensitive currents. The inactivation of hERG was measured by a previously reported triple-pulse protocol5, 6. The holding potential was -80 mV. The hERG channel was first depolarized to +50 mV for 1 second. Recovery from inactivation was achieved using a short pulse (a 10 ms hyperpolarization) to -120 mV, followed by the application of test pulses from -100 to 0 mV for 1 second in 10 mV steps.
# (§6) A voltage of -100 mV was selected because it was on the flat part of the inactivation-voltage relationship. The methods employed are identical to ones previously reported. […]
# [2] = molecular target: T1, hERG1; conditions: cited from earlier work
# [3] = molecular target: T2, hERG1 E544L (Homo sapiens, UniProt Q12809, E544L); test: Whole cell patch-clamp of hERG1 E544L mutant; format: cell-based; conditions: 10 µM
# T2 construct: expressed in transfected cells; host or cells: HEK 293
# Description: as §1, §2, §3, §4, §5, §6
# [4] = molecular target: T2, hERG1 E544L; conditions: ref [7]–[12]; cited from earlier work
compound,measurement,setting,value
COCOc1ccc(C(F)(F)F)cc1N [Compound 20],Deactivation Δλ/λcon,[1]; Conc. 5 µM,0.03±0.01
same,Activation V1/2 (mV),[1]; Conc. 5 µM,−2.5±0.5 mV
same,Inactivation ΔV0.3,[1]; Conc. 5 µM,0±1
same,Deactivation Δλ/λcon,[1]; Conc. 100 µM,−0.06±0.2
same,Activation V1/2 (mV),[1]; Conc. 100 µM,−3.3±1.3 mV
same,Inactivation ΔV0.3,[1]; Conc. 100 µM,−1±0
same,Amplitude I/Icon,[1]; Conc. 100 µM,0.9±0.04
COCOc1ccc(C(F)(F)F)cc1NC(N)=O [Compound 21],Deactivation Δλ/λcon,[1]; Conc. 50 µM,0.02±0.1
same,Activation V1/2 (mV),[1]; Conc. 50 µM,−1.3±2.4 mV
same,Inactivation ΔV0.3,[1]; Conc. 50 µM,0.7±3.7
same,Amplitude I/Icon,[1]; Conc. 50 µM,0.9±0.04
COCOc1ccc(C(F)(F)F)cc1NC(=O)Oc1ccccc1 [Compound 22],Deactivation Δλ/λcon,[1]; Conc. 50 µM,−0.2±0.09
same,Activation V1/2 (mV),[1]; Conc. 50 µM,−1.7±2.3 mV
same,Inactivation ΔV0.3,[1]; Conc. 50 µM,0±0
same,Amplitude I/Icon,[1]; Conc. 50 µM,0.9±0.04
O=C1NC(=O)c2cc(C(F)(F)F)ccc21 [Compound 23],Deactivation Δλ/λcon,[1]; Conc. 50 µM,0.2±0.1
same,Activation V1/2 (mV),[1]; Conc. 50 µM,−2.3±1.3 mV
same,Inactivation ΔV0.3,[1]; Conc. 50 µM,−2±1.2
same,Amplitude I/Icon,[1]; Conc. 50 µM,1.0±0.01
O=C(Nc1ccccc1)C1C(=O)Nc2ccccc21 (stereo not shown) [Compound 24],Deactivation Δλ/λcon,[1]; Conc. 50 µM,0.2±0.2
same,Activation V1/2 (mV),[1]; Conc. 50 µM,−2.3±0.9 mV
same,Inactivation ΔV0.3,[1]; Conc. 50 µM,8±0
same,Amplitude I/Icon,[1]; Conc. 50 µM,0.8±0.03
O=C(Nc1cc(C(F)(F)F)ccc1O)Nc1cc(C(F)(F)F)ccc1O [NS1643],NS1643-induced increase in tail current amplitude,"[2]; WT, ref [7]–[12]",13%
same,NS1643-induced slowing of deactivation,"[2]; WT, ref [7]–[12]",1.9 fold
same,concentration increasing current density / tail current magnitude,[2]; ref [7],10 µM
same,concentration producing channel blockade,[2]; ref [7],30 µM
same,concentration that increases the magnitude of the tail current,[2]; ref [13],10 µM
same,concentrations that pharmacologically block the channel,[2]; ref [13],20–30 µM
same,NS1643-induced shift in the V1/2 of activation,"[2]; wild type (WT), ref [7]–[12]",−18±3 mV
same,"pharmacologic responses (shift in voltage-dependence of activation, slowing of deactivation) in E544L versus WT",[3],exaggerated pharmacologic responses; also recorded: exaggerated response
same,response in amplitude of the tail current in E544L versus WT,[3],exaggerated
same,Deactivation Δλ/λcon,[1]; Conc. 10 µM,1±0.4
same,Activation V1/2 (mV),[1]; Conc. 10 µM,−21±2.3 mV
same,Inactivation ΔV0.3,[1]; Conc. 10 µM,+6±0.6
same,Amplitude I/Icon,[1]; Conc. 10 µM,1±0.04
same,safety factor,"[1]; original safety factor, blockade versus activation",3 fold
same,NS1643-induced increase in tail current amplitude,[4],398%
same,NS1643-induced shift in the V1/2 of activation,[4],−24±3 mV
same,NS1643-induced slowing of deactivation,[4],3.5 fold

# — PMC4156305, “Structure Driven Design of Novel Human Ether-A-Go-Go-Related-Gene Channel (hERG1) Activators” (PLoS ONE, 2014)
